Results published in patent US7563862B2, “Neural regeneration peptides and methods for their use in treatment of brain damage” (Neuren Pharmaceuticals Limited, priority 2001, dated 2009).
Ends that are not written are not given here.

Assays:
[1] = system: un-injured cerebellar microexplants; experiment: proliferation induction without injury, cerebellar microexplants; assay type: cell-based, rat
Experimental: FIG. 17 depicts results of proliferation induction without injury using NRP-2 segment KG (SEQ ID NO: 18) and rat NRP-1 (SEQ ID NO: 2). Peptides were administered 24hrs after start of cultivation to decrease interference in the assay due to initial neuronal survival or adherence effects. The cultures were fixed after 3 days in vitro. There was neuronal proliferation seen at 300 μM of NRP-2 segment KG (SEQ ID NO: 18).
Within the applied proliferation assay rat NRP-1 (SEQ ID NO:2) and NRP-2KS (SEQ ID NO:23) were tested for neuronal proliferation inducing activity (see FIG. 19). In order to discriminate proliferation from increased survival and cellular adhesion properties, NRP-2 KS (SEQ ID NO:23) was administered 24 hrs after the start of cultivation. Rat NRP-1(SEQ ID NO:2) had specific effects on neuronal proliferation, (see FIGS. 7, 9 and 10). Neuronal proliferation induced by NRP-2KS (SEQ ID NO:23) occurred within a range of about 0.3-30 nM using un-injured cerebellar microexplants (verified by counting cells displaying neurite outgrowth).

neural stem cells = experiment: neural stem cell differentiation assay, neuronal differentiation and axonal outgrowth; assay type: cell-based, mouse
Experimental: Neural stem cells were derived from E15 C3H mice forebrain and cultured as neurospheres in the presence of 20 ng/ml EGF and 10 ng/ml bFGF as described in Gritti et al. (2001). Briefly, timed pregnant mice were sacrificed and the embryos removed. Under sterile conditions the brains were removed and the forebrains dissected. The tissue was dissociated by trituration and pelleted by 75 g centrifugation for 10 minutes and the cells seeded in non-coated tissue culture flasks in NSA medium with growth factors. For passaging neurospheres were triturated and seeded as single cells.
Upon reaching a sufficient size, neurospheres were dissociated by trituration and plated at a density of 200,000 cells per well on laminin-coated 13 mm diameter coverslips that had been placed in Nunc 24 well plates. The plating medium was a 1:1 mixture of DMEM/F12 supplemented with N2 and Neurobasal supplemented with B27 and 2 mM glutamine. To enhance survival after plating the medium contained 2 ng/ml bFGF. After 24 h the medium was replaced with a neuronal differentiation-promoting medium (1:3 mixture of DMEM/F12 supplemented with N2 and Neurobasal supplemented with B27 and 2 mM glutamine) and except for the controls the test compound or IGF-1 was added simultaneously. The medium with fresh compound was exchanged every other day. Seven days after plating the differentiating cells were incubated for 20 minutes in differentiation medium containing 100 ng/ml Syto21 to label the nuclei of viable cells. Subsequently, they were fixed with 4% paraformaldehyde and immunostained with a mouse anti-βIII tubulin antibody and a goat anti-mouse Cy3-coupled secondary antibody.
After staining the coverslips were removed from the tissue culture plate and mounted on […], using Immunofluore fluorescent mounting medium. To analyse the percentage of neurons of total cells, with a Zeiss axiophot microscope, equipped with Axoivision software, at 20× magnification images of two random fields per well were taken in the red (tubulin stained neurons) and green (Syto21 stained nuclei) fluorescent channel. Neurons and nuclei per field were counted and the neuronal percentage of total cell number determined.

thalamocortical OTCs = experiment: thalamocortical OTC neuronal migration assay (cell bridge / cell chain); assay type: cell-based, rat
Description: We developed a new assay system for identifying NRP having migration-inducing activity. The assay system was used following guidelines approved by the Gesundheitsamt Magdeburg animal ethics committee. Newborn Long Evans rats (P0) were killed by decapitation, and neural tissues were used for preparation of organotypic cultures (OTCs). Neocortical tissue (areas 17-18 according to the Paxinos rat atlas of the developing rat brain) and thalamic tissue from the dorsal thalamus (visual areas) were extracted. These areas represent the visual axis. The dorsal thalamus was accessed by an intersection cut to remove the hypothalamus. Subsequently, the thalamus was sliced frontally using a McIllwain tissue chopper into 350 μm thick slices. Using a dissecting microscope, the habenula nucleus served as a landmark to select only dorsal thalamic areas. Cortical tissues were cut using two sagittal and two frontal intersections in order to obtain areas 17-18 of the occipital cortex. Before the last frontal cut was made, the hippocampal formation was removed. The cortical tissues were sliced by a Mclllwain tissue chopper into 350 μm thick frontal slices and was incubated in Gey's balanced salt solution (GBSS) plus 0.65% D(+)glucose, and tissuesswere kept at 4° C. for at least 30-40 minutes for recovery.
For each assay, two slices of tissue, one cortical and one thalamic, were arranged at a distance at least about 3 mm from each other on a glass substrate (e.g., a cover slip; FIG. 1). The thalamus was oriented with the habenula nucleus facing cortical layer VI. The tissues were adhered to the substrate using a plasma clot (10 μl chicken plasma (Cocalico) coagulated with 10 μl thrombin (25 U/ml, ICN) and the tissues were subsequently cultured (cultivated) at 36° C. in a roller tube incubator as organotypic cultures using 2/4 BME/¼ HBSS (Invitrogen) medium supplemented with 25% heat-inactivated horse serum (Gaehwiler, 1981) plus 2 mM L0glutamine and 0.65% D-glucose. A 712.5 μl sample of prepared medium was supplemented with 37.5 μl of purified rat NRP-1 (SEQ ID NO:2) (in concentrated or diluted form) in 0.01 M sodium phosphate (pH 7.3) or phosphate alone (control). For the experiments using 600 ng/ml NRP-1, the peptide was concentrated 4 times by speed vacuum centrifugation. The medium containing NRP was changed every three days. After each study was completed, the tissues were fixed using conventional fixatives, and migrating neurons were analysed by immunocytochemistry.
Thus, any observations of neurite outgrowths or interconnecting cell bridges are due to the influence of factors added to the culture medium. […] Thus, in certain embodiments of this invention, NRPs can be identified and/or quantified. In other embodiments, NRPs amounts can be standardized, forming a basis for therapeutic application of NRPs to treat neurological diseases or conditions.
Migration of the thalamic neurons was determined after 3 days of co-culture in the presence of NRP. The migration distances were measured by a micrometer scaled-microscopic ocular, beginning from the tissue margin of the migrating cell stream. As a threshold value for the formation of a migrating cell chain was considered to be a number of at least 5 interconnected neurons. For the determination of the dose-response curve, the longest distance of a migrated neuron from the thalamic tissue margin was measured. Results are given as mean values+/− standard deviation.

In the case of “KDPEARRAPGSLHPCLAAS-NH2 [NRP-2 segment KS, 19-mer fragment of NRP-2]”, the “increased neuronal cell proliferation, greater than vehicle-treated controls” value ([1]; 300 μM) is reported as 117.5%, the “concentration range of induced neuronal proliferation” value ([1]; peptide 24 hrs after start of cultivation) is reported as 0.3 to 30 nM and the “maximum increase in beta-III-tubulin-positive neurons” value (neural stem cells; 1 0nM, 7 days differentiation) is reported as 2 fold. The “proliferation rate during differentiation of NSC” value (neural stem cells; together with BrdU for 24 hrs) was “an increase in the proliferation rate”.

In the case of “NRP-1: rat 16 amino acid neural regeneration peptide purified from hippocampal OTC supernatant, Tyr Asp Pro Glu ... Cys His-NH2 (YDPEAASAPGSGNPCH-NH2)”, the “concentration at which neuronal migration was clearly detected” value (thalamocortical OTCs; 2 ng/ml = 1 nM) is reported as 2 ng/mL, the “length of cell bridge between the thalamic and cortical tissues” value (thalamocortical OTCs; 6 ng/ml (3 nM)) is reported as 2500±240 μm and the “concentrations at which neuronal migration was not increased” value (thalamocortical OTCs; 10-30 nM) is reported as 20 to 60 ng/mL. For the same substance, the “interconnecting neurite network formed, time after cultivation start” value (thalamocortical OTCs; NRP-1 supplemented co-cultures) was no more than 36 h, the “concentration producing the longest cell chain” value (thalamocortical OTCs; dose-response 2-600 ng/ml, 6 ng/ml = 3 nM) was 6 ng/mL and the “concentration producing the greatest effect (migrating cell chain)” value (thalamocortical OTCs; thalamocortical OTCs) was 3 nM. For the same substance, the “concentration of greatest effect on neuronal proliferation” value [1] was 3 nM and the “up regulation of neuronal cell proliferation” value ([1]; 3 nM) was 81.2%.

“SEPEARRAPGRKGGVVCASLAADW-NH2 [NRP-7 segment SW, 24-mer form of mouse NRP-7]” was tested, and the “maximum increase in beta-III-tubulin-positive neurons” value (neural stem cells; 10 pM, 7 days differentiation) was 2 fold and the “axonal outgrowth-promoting activity” value (neural stem cells; 7 days differentiation) was “maximum activity for an increase in axonal length growth lies in the upper nanomolar range”.
